Experiments:
castrated BPH model mice = experiment: Castrated benign prostatic hyperplasia (BPH) mouse model; type: in vivo; settings: for testosterone-induced increase in seminal gland weight / testosterone-induced increase in ventral prostate size, length and width: 0.08% Fin, 1% TBE or 2% EA in drinking water, testosterone i.p. daily
5αR = settings: cited from earlier work
5α-reductase (5αR) = biological target: T1, 5α-reductase (5αR) (Rattus norvegicus, UniProt P24008); experiment: 5αR activity assay (S9 rat liver homogenate, residual testosterone by HPLC); type: biochemical; settings: cell-free system
T1 sequence (P24008 1-259): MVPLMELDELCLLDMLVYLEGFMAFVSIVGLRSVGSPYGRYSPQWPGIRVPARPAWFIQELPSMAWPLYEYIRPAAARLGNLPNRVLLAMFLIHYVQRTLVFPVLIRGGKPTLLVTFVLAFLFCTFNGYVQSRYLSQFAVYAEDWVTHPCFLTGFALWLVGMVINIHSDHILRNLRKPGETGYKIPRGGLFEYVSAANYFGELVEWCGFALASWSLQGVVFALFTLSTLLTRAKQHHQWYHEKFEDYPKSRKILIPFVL

[1] = qPCR, prostate and seminal glands

| Compound | testosterone-induced increase in seminal gland weight (castrated BPH model mice) | testosterone-induced increase in ventral prostate size, length and width (castrated BPH model mice) | inhibition of 5αR (5αR) | also measured |
| --- | --- | --- | --- | --- |
| CC(C)(C)NC(=O)[C@H]1CC[C@H]2[C@@H]3CC[C@H]4NC(=O)C=C[C@]4(C)[C@H]3CC[C@]12C [Fin, finasteride] | tended to inhibit | tended to inhibit |  | canalization and lumen formation in prostate gland (castrated BPH model mice; Masson's trichrome histology, 0.08% Fin or 1% TBE): suppressed; prostate basal cell proliferation, BrdU+ cells (castrated BPH model mice; immunohistochemistry, 0.08% Fin or 1% TBE): inhibited cell proliferation; PSA (Klkb1) expression (castrated BPH model mice; [1]): suppressed; TMPRSS2 expression (castrated BPH model mice; [1]): suppressed |
| 1,2,3,6- or 1,2,4,6-tetra-O-galloyl-D-glucose [TGG] |  |  | inhibit 5αR |  |
| O=c1oc2c(O)c(O)cc3c(=O)oc4c(O)c(O)cc1c4c23 [EA, ellagic acid] | negligible effects | negligible effects |  | inhibition of 5αR activity (5α-reductase (5αR)): weakly inhibited |
| O=C(O)c1cc(O)c(O)c(O)c1 [GA, gallic acid] |  |  |  | 5αR inhibitory effects (5αR): does not exert 5αR inhibitory effects |
| O=C(O[C@@H]1O[C@@H]2COC(=O)c3cc(O)c(O)c(O)c3-c3c(cc(O)c(O)c3O)C(=O)O[C@H]2[C@H](OC(=O)c2cc(O)c(O)c(O)c2)[C@H]1OC(=O)c1cc(O)c(O)c(O)c1)c1cc(O)c(O)c(O)c1 [eugeniin] |  |  | inhibit 5αR |  |

— PMC10380868, “Trapa bispinosa Roxb. Pericarp Extract Exerts 5α-Reductase Inhibitory Activity in Castrated Benign Prostatic Hyperplasia Model Mice” (International Journal of Molecular Sciences, 2023)
